Patent publication US10407467B2, “Polymyxin derivatives and their use in combination therapy together with different antibiotics” (priority 2013, dated 2019)
Counter-ions that a name gives are not always drawn. Bridge positions count the residues as written; N and C are the ends. Square brackets hold non-standard residues; d marks the D form. Peptide text beside a SMILES is read from it. * marks the point of attachment. ξ: configuration not given here. X17 = CN1CCN(c2ccc(C(=O)*)cc2)CC1; X8 = N[C@@H]1CC[C@H](C(=O)*)C1; Thr(3ξ) = CC(O)[C@H](N)C(=O)O; X13 = O=C(CC[C@@H]1CCCN1)*; Dab = NCC[C@H](N)C(=O)O; X14 = CC(C)(N)CCC(=O)*; Inp = O=C(O)C1CCNCC1; βAla = NCCC(=O)O

Experiments:
Assay type in all cases: cell-based
[1] = tested on: Klebsiella pneumoniae; test: MIC, compound in combination with a second agent (broth microdilution); conditions: 1:1 (wt:wt) combination with Rifampicin; for MIC K. pneumoniae NCTC 13438: strain NCTC 13438; for MIC K. pneumoniae ATCC 4352: strain ATCC 4352
In short: (§1)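 Susceptibility was tested on up to four strains of each pathogen with the compound paired 1:1 by weight alongside another antibacterial. Values count both components together and use the lower duplicate if replicates agreed within 2-fold.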

[2] = tested on: Escherichia coli; test: as above; conditions: 1:1 (wt:wt) combination with Rifampicin; for MIC E. coli NCTC9001: strain NCTC9001
In short: as §1

[3] = tested on: Pseudomonas aeruginosa; test: MIC, sole activity (no second agent); conditions: in the absence of Rifampicin; for MIC P. aeruginosa ATCC 27853: strain ATCC27853
In short: (§2)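 First, isolated colonies grown 18-24 hours on Mueller-Hinton agar were suspended to 0.5 McFarland; next, up to four strains per pathogen were tested in duplicate in cation-adjusted MHB; finally, the lower concordant value or modal repeat value was reported against Polymyxin B.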

[4] = tested on: Klebsiella pneumoniae; test: MIC, sole activity (no second agent); conditions: in the absence of Rifampicin; for MIC K. pneumoniae ATCC 4352: strain ATCC 4352; for MIC K. pneumoniae ATCC-BAA2146: strain ATCC-BAA2146; for MIC K. pneumoniae CCUG-59348: strain CCUG-59348; for MIC K. pneumoniae NCTC-13438: strain NCTC-13438
In short: as §2

[5] = tested on: Escherichia coli; test: MIC, sole activity (no second agent); conditions: in the absence of Rifampicin; for MIC E. coli ATCC25922: strain ATCC25922; for MIC E. coli NCTC9001: strain NCTC9001
In short: as §2

[6] = tested on: Acinetobacter baumannii; test: MIC, sole activity (no second agent); conditions: in the absence of Rifampicin
In short: as §2

[7] = tested on: Pseudomonas aeruginosa; test: MIC, compound in combination with a second agent (broth microdilution); conditions: 1:1 (wt:wt) combination with Rifampicin
In short: as §1

[8] = MIC = total drug concentration, strain ATCC-BAA-2146
[9] = MIC = total drug concentration, strain CCUG-59348
[10] = MIC = total drug concentration, strain ATCC25922
[11] = MIC = total drug concentration, strain ATCC 27853
[12] = MIC = total drug concentration, strain CCUG 59626
[13] = MIC is total drug concentration

| MIC K. pneumoniae ATCC-BAA-2146 [1, 8] | MIC K. pneumoniae CCUG-59348 [1, 9] | MIC K. pneumoniae NCTC 13438 ([1]; MIC = total drug concentration) | MIC E. coli ATCC25922 [2, 10] | MIC E. coli NCTC9001 ([2]; MIC = total drug concentration) | MIC P. aeruginosa ATCC 27853 [3] | MIC K. pneumoniae ATCC 4352 [4] | MIC K. pneumoniae ATCC-BAA2146 [4] | MIC K. pneumoniae CCUG-59348 [4] | MIC K. pneumoniae NCTC-13438 [4] | MIC E. coli ATCC25922 [5] | MIC P. aeruginosa ATCC 27853 [7, 11] | MIC P. aeruginosa CCUG 59626 [7, 12] | Structure (SMILES) | further results |
| --- | --- | --- | --- | --- | --- | --- | --- | --- | --- | --- | --- | --- | --- | --- |
| 1 micrograms/mL | 8 micrograms/mL | 2 micrograms/mL |  | 0.25 micrograms/mL | 0.125 micrograms/mL | 0.125 micrograms/mL | >32 micrograms/mL | >32 micrograms/mL | >32 micrograms/mL | 2 micrograms/mL |  |  | CC(C)C[C@@H]1NC(=O)[C@@H](Cc2ccccc2)NC(=O)[C@H](CCN)NC(=O)[C@@H](NC(=O)[C@H](CCN)NC(=O)[C@@H](NC(=O)CCN)C(C)O)CCNC(=O)[C@H](C(C)O)NC(=O)[C@H](CCN)NC(=O)[C@H](CCN)NC1=O (stereo partly shown) [Example 3, 3-Aminopropanoyl polymyxin B nonapeptide] (H-[βAla][Thr(3ξ)][Dab][Dab][Dab][dF]L[Dab][Dab][Thr(3ξ)]; lactam 4-C) | MIC P. aeruginosa ATCCCRM-9027 ([3]; strain ATCCCRM-9027): 0.25 micrograms/mL; MIC A. baumannii ATCCBAA-747 ([6]; strain ATCCBAA-747): 1 micrograms/mL; MIC A. baumannii NCTC 13423 ([6]; strain NCTC13423): 1 micrograms/mL |
| 0.5 micrograms/mL | 8 micrograms/mL | 0.5 micrograms/mL |  | 0.25 micrograms/mL | <0.06 micrograms/mL | 0.25 micrograms/mL | >32 micrograms/mL | >32 micrograms/mL | >32 micrograms/mL | 4 micrograms/mL |  |  | CC(C)C[C@@H]1NC(=O)[C@@H](Cc2ccccc2)NC(=O)[C@H](CCN)NC(=O)[C@@H](NC(=O)[C@H](CCN)NC(=O)[C@@H](NC(=O)CCC(C)(C)N)C(C)O)CCNC(=O)[C@H](C(C)O)NC(=O)[C@H](CCN)NC(=O)[C@H](CCN)NC1=O (stereo partly shown) [Example 21, 4-Amino-4-methyl pentanoyl polymyxin B nonapeptide] (X14-[Thr(3ξ)][Dab][Dab][Dab][dF]L[Dab][Dab][Thr(3ξ)]; lactam 3-C) | MIC E. coli NCTC9001 [5]: >32 micrograms/mL |
| 1 micrograms/mL | 8 micrograms/mL | 1 micrograms/mL |  | 0.25 micrograms/mL | 0.125 micrograms/mL | 1 micrograms/mL | >32 micrograms/mL | >32 micrograms/mL | >32 micrograms/mL | 16 micrograms/mL |  |  | CC(C)C[C@@H]1NC(=O)[C@@H](Cc2ccccc2)NC(=O)[C@H](CCN)NC(=O)[C@@H](NC(=O)[C@H](CCN)NC(=O)[C@@H](NC(=O)CC[C@@H]2CCCN2)C(C)O)CCNC(=O)[C@H](C(C)O)NC(=O)[C@H](CCN)NC(=O)[C@H](CCN)NC1=O (stereo partly drawn) [Example 23, 3-(S)-(1-pyrrolidin-2-yl)-propionyl polymyxin B nonapeptide] (X13-[Thr(3ξ)][Dab][Dab][Dab][dF]L[Dab][Dab][Thr(3ξ)]; lactam 3-C) | MIC E. coli NCTC9001 [5]: >32 micrograms/mL |

Further lines, the compound ahead of its results:

| Structure (SMILES) | MIC K. pneumoniae ATCC-BAA-2146 [1, 8] | MIC K. pneumoniae CCUG-59348 [1, 9] | MIC K. pneumoniae NCTC 13438 ([1]; MIC = total drug concentration) | MIC E. coli ATCC25922 [2, 10] | MIC E. coli NCTC9001 ([2]; MIC = total drug concentration) | MIC P. aeruginosa ATCC 27853 [3] | MIC K. pneumoniae ATCC 4352 [4] | MIC K. pneumoniae ATCC-BAA2146 [4] | MIC K. pneumoniae CCUG-59348 [4] | MIC K. pneumoniae NCTC-13438 [4] | MIC E. coli ATCC25922 [5] | MIC P. aeruginosa ATCC 27853 [7, 11] | MIC P. aeruginosa CCUG 59626 [7, 12] | further results |
| --- | --- | --- | --- | --- | --- | --- | --- | --- | --- | --- | --- | --- | --- | --- |
| CC(C)C[C@@H]1NC(=O)[C@@H](CC(C)C)NC(=O)[C@H](CCN)NC(=O)[C@@H](NC(=O)[C@H](CCN)NC(=O)[C@@H](NC(=O)C(O)C2CCCCC2)C(C)O)CCNC(=O)[C@H](C(C)O)NC(=O)[C@H](CCN)NC(=O)[C@H](CCN)NC1=O (single isomer, unassigned; isomer 2) [Example 32, 2(RS)-(2-Hydroxy-2-cyclohexyl)ethanoyl polymyxin E nonapeptide, TFA salt. Isomer 2] | 1 micrograms/mL | 2 micrograms/mL | 1 micrograms/mL | 0.5 micrograms/mL | 1 micrograms/mL |  |  |  |  |  |  |  |  |  |
| CC(C)C[C@@H]1NC(=O)[C@@H](Cc2ccccc2)NC(=O)[C@H](CCN)NC(=O)[C@@H](NC(=O)[C@H](CCN)NC(=O)[C@@H](NC(=O)[C@H]2CC[C@@H](N)C2)C(C)O)CCNC(=O)[C@H](C(C)O)NC(=O)[C@H](CCN)NC(=O)[C@H](CCN)NC1=O (stereo partly drawn) [Example 34B, (1S,3R)-3- Aminocyclopentane carbonyl polymyxin B nonapeptide] (X8-[Thr(3ξ)][Dab][Dab][Dab][dF]L[Dab][Dab][Thr(3ξ)]; lactam 3-C) |  |  |  | <0.06 micrograms/mL |  |  |  |  |  |  |  |  |  | MIC P. aeruginosa ATCC CRM-9027 ([7]; MIC = total drug concentration, strain ATCC CRM-9027): 0.25 micrograms/mL |
| CC(C)C[C@@H]1NC(=O)[C@@H](Cc2ccccc2)NC(=O)[C@H](CCN)NC(=O)[C@@H](NC(=O)[C@H](CCN)NC(=O)[C@@H](NC(=O)[C@H](CCN)NC(=O)C2CCNCC2)C(C)O)CCNC(=O)[C@H](C(C)O)NC(=O)[C@H](CCN)NC(=O)[C@H](CCN)NC1=O (stereo partly shown) [Example 53, Piperidin-4-yl carbonyl-polymyxin B decapeptide, trifluoroacetate salt] (H-[Inp][Dab][Thr(3ξ)][Dab][Dab][Dab][dF]L[Dab][Dab][Thr(3ξ)]; lactam 5-C) | 1 micrograms/mL | 4 micrograms/mL |  | 0.125 micrograms/mL |  |  |  |  |  |  |  | ≤0.06 micrograms/mL | ≤0.06 micrograms/mL | MIC K. pneumoniae ATCC 4352 ([1]; MIC = total drug concentration): ≤0.06 micrograms/mL |
| CC(C)C[C@@H]1NC(=O)[C@@H](Cc2ccccc2)NC(=O)[C@H](CCN)NC(=O)[C@@H](NC(=O)[C@H](CCN)NC(=O)[C@@H](NC(=O)[C@H](CCCCN)NC(=O)C2CCNCC2)C(C)O)CCNC(=O)[C@H](C(C)O)NC(=O)[C@H](CCN)NC(=O)[C@H](CCN)NC1=O (stereo partly drawn) [Example 54, Piperidin-4-yl carbonyl-L-Lys-polymyxin B nonapeptide, trifluoroacetate salt] (H-[Inp]K[Thr(3ξ)][Dab][Dab][Dab][dF]L[Dab][Dab][Thr(3ξ)]; lactam 5-C) | 1 micrograms/mL | 4 micrograms/mL |  | 0.25 micrograms/mL |  |  |  |  |  |  |  | ≤0.06 micrograms/mL | ≤0.06 micrograms/mL | MIC K. pneumoniae ATCC 4352 ([1]; MIC = total drug concentration): 0.125 micrograms/mL |
| CC(C)C[C@@H]1NC(=O)[C@@H](Cc2ccccc2)NC(=O)[C@H](CCN)NC(=O)[C@@H](NC(=O)[C@H](CCN)NC(=O)[C@@H](NC(=O)c2ccc(N3CCN(C)CC3)cc2)C(C)O)CCNC(=O)[C@H](C(C)O)NC(=O)[C@H](CCN)NC(=O)[C@H](CCN)NC1=O (stereo partly shown) [Example 55, 4-(4-Methyl-piperazin-1-yl) benzoyl polymyxin B nonapeptide] (X17-[Thr(3ξ)][Dab][Dab][Dab][dF]L[Dab][Dab][Thr(3ξ)]; lactam 3-C) | 1 micrograms/mL | 4 micrograms/mL |  | 0.125 micrograms/mL |  |  |  |  |  |  |  | 0.25 micrograms/mL | 0.25 micrograms/mL | MIC P. aeruginosa ATCC 27853 [7, 13]: 0.25 micrograms/mL; MIC P. aeruginosa CCUG 59626 [7, 13]: 0.25 micrograms/mL; MIC K. pneumoniae ATCC-BAA-2146 [1, 13]: 1 micrograms/mL; MIC K. pneumoniae CCUG-59348 [1, 13]: 4 micrograms/mL; MIC E. coli ATCC25922 [2, 13]: 0.125 micrograms/mL |
